Results reported in the NIST ThermoML archive (doi:10.1016/j.fluid.2010.12.003).

Experiment: xn = mol fraction of the nth substance listed
Settings: 101 kPa, Fluid (supercritical or subcritical phases), Taylor dispersion method, x1 = 0

| binary diffusion coefficient (298 K) [m2/s] | binary diffusion coefficient (312 K) [m2/s] | binary diffusion coefficient (332 K) [m2/s] | binary diffusion coefficient (352 K) [m2/s] | binary diffusion coefficient (372 K) [m2/s] | binary diffusion coefficient (392 K) [m2/s] | binary diffusion coefficient (413 K) [m2/s] | SMILES |
| --- | --- | --- | --- | --- | --- | --- | --- |
| 1.66e-10 | 2.19e-10 | 2.77e-10 | 3.07e-10 | 3.51e-10 | – | – | O=c1c(O[C@@H]2O[C@H]([C@H](O)CO)[C@H](O)[C@H]2O)c(-c2ccc(O)c(O)c2)oc2cc(O)cc(O)c12 [isoquercitrin] + O |
| 2.16e-10 | 2.71e-10 | 3.6e-10 | 4.41e-10 | 5.15e-10 | 5.3e-10 | 5.79e-10 | COc1cc(-c2[o+]c3cc(O)cc(O[C@@H]4O[C@H](CO)[C@@H](O)[C@H](O)[C@H]4O)c3cc2O[C@@H]2O[C@H](CO)[C@@H](O)[C@H](O)[C@H]2O)cc(OC)c1O.[Cl-] [malvidin-3,5-diglucoside chloride] + O |

Second part, the compound before the results:

| SMILES | binary diffusion coefficient (298 K) [m2/s] | binary diffusion coefficient (312 K) [m2/s] | binary diffusion coefficient (332 K) [m2/s] | binary diffusion coefficient (352 K) [m2/s] | binary diffusion coefficient (372 K) [m2/s] | binary diffusion coefficient (392 K) [m2/s] | binary diffusion coefficient (413 K) [m2/s] |
| --- | --- | --- | --- | --- | --- | --- | --- |
| COc1cc(-c2[o+]c3cc(O)cc(O)c3cc2O[C@@H]2O[C@H](CO)[C@@H](O)[C@H](O)[C@H]2O)ccc1O.[Cl-] + O | 2.19e-10 | 2.67e-10 | 3.65e-10 | 4.52e-10 | 5.39e-10 | 6.18e-10 | 6.49e-10 |
| Oc1cc(O)c2c(c1)O[C@H](c1ccc(O)c(O)c1)[C@H](O)C2 + O | 1.97e-11 | 2.66e-11 | 3.38e-11 | 3.89e-11 | 4.06e-11 | 5.19e-11 | – |
| O=C(O)c1cc(O)c(O)c(O)c1 [3,4,5-trihydroxybenzoic acid] + O | 2.5e-10 | 2.87e-10 | 3.3e-10 | 4.07e-10 | – | – | – |
| O=C(O)c1ccc(O)c(O)c1 [3,4-dihydroxybenzoic acid] + O | 2.46e-10 | 3.2e-10 | 3.84e-10 | 4.15e-10 | 5.12e-10 | 5.27e-10 | – |
| Oc1cc(O)c2c(c1)O[C@H](c1ccc(O)c(O)c1)[C@@H](O)C2 [(+)-catechin] + O | 2.33e-10 | 3.07e-10 | 3.76e-10 | 4.05e-10 | 4.25e-10 | 4.78e-10 | 5.3e-10 |
